These results are taken from paper PMC9375929, “Functional and structural characteristics of HLA-B*13:01-mediated specific T cells reaction in dapsone-induced drug hypersensitivity” (Journal of Biomedical Science, 2022).

The target of the assay is T1, HLA-B*13:01 (with beta-2-microglobulin) (Homo sapiens, UniProt A0A583ZBB4).
T1 construct: for SPR incubated with beta-2-microglobulin (Chemicon) and amine-coupled; no peptide ligand mentioned for SPR; with Beta-2-microglobulin
As to the kind of experiment: surface plasmon resonance (Biacore T200), protein immobilised by amine coupling. Format: binding. For orientation: In SPR one partner is held on a chip, and binding of the other changes the refractive index at the surface.

Molecules are shown by their SMILES.

The term Kd denotes the concentration at which binding is half-saturated. Low readings indicate higher affinity, high ones lower affinity. In the case of `Nc1ccc(S(=O)(=O)c2ccc(N)cc2)cc1` [DDS], binding was characterised by a dissociation constant (Kd) of 68.5 µM.
